Experimental data published in patent US11446262B2, “Neuroquiescence—a treatment for neurodevelopmental and neurodegenerative bioelectrical dysregulation and demyelination” (priority 2018, dated 2022).
Entries after “also recorded” stand apart in the source; their conditions may differ.

Experiments:
[1] = system: seizure and Grand mal seizure; assay: Midazolam IV for termination of seizure; type: in vivo, human; conditions: IV 0.2 mg/kg (Maximum 10 mg)
[2] = system: patients (allergic reaction); assay: Anesthesia allergy test before the Neuroquiescence session
[3] = system: children with seizures and agitated bioelectrical brain activity; parameters: species or system human; conditions: in vivo
[4] = Absorption of Midazolam administered by IV
[5] = system: children with Epilepsy (seizures, neuronal agitation noise on EEG); assay: Neuroquiescence protocol (Dobutamine preparation plus sustained sedation) in children with Epilepsy, hospital case series; type: in vivo, human
[6] = system: patients with seizures (Epilepsy); assay: Use of Dobutamine in seizure patients before the sedation session (adults); type: in vivo, human
Text: We alternate weeks between the Neurokinin-2 (Nk2) versus the Dobutamine Infusion (Dob). We are limited to four doses of Neurokinin 2, so we distribute them among the Dobutamine doses to maximize the Neurokinin-2 counterinflammation. We use no Dobutamine on the day before or after the day of Neurokinin-2.
The traditional “intractable” Epilepsy concept is overcome by use of Dobutamine, which is about cerebrovascular bloodflow, not about suppression of seizures. Dobutamine outperforms antiseizure medications because it addresses the true root-cause of seizures.

Compound | termination of frequency of seizure and Grand mal seizure [1] | patients allergic in allergy test [2] | EEG monitoring and Brainscans [3] | symptoms of seizures and agitated bioelectrical brain activity [3] | symptoms of seizures and bioelectrical brain activity after Neuroquiescence [3] | absorption [4] | children having no neuronal agitation noise, never returns ([5]; after week-six Neuroquiescence sedation session, Dobutamine continued) | children with no seizures but neuronal agitation noise still present ([5]; weeks two through five, Pre-Neuroquiescence preparation on Dobutamine, no antiseizure medication) | seizure status of adults previously taking multiple antiseizure medications ([6]; intravenous Dobutamine, before sedation session) | performance versus antiseizure medication ([6]; neuronal agitation still present during weeks of microvascular preparation) | time to seizure-free ([6]; one adult with unmanageable morning seizures for fifteen years) | neuronal agitation on EEG ([6]; same adult, a few more months, all antiseizure medications removed)
Cc1ncc2n1-c1ccc(Cl)cc1C(c1ccccc1F)=NC2 [Midazolam] | effective | approximately 5% | became normal | resolved | partial improvement; also recorded: resolved | well absorbed | – | – | – | – | – | –
CC(CCc1ccc(O)cc1)NCCc1ccc(O)c(O)c1 (stereo not drawn) [Dobutamine] | – | – | – | – | – | – | over 95% | about 80% | become seizure free | consistently outperformed their antiseizure medication | seizure-free in less than one month | no neuronal agitation measurable at EEG sensitivities
